Laboratory results as given in patent US20050009776A1, “Method of treating atrial fibrillation or atrial flutter” (Aderis Pharmaceuticals, Inc., priority 2003, published 2005).
Marks after values point to notes of the source that are not given here.

Experiments:
[1] = tested on: patients with atrial fibrillation; assay: Example 4: placebo-controlled 15-minute i.v. infusion, heart rate and blood pressure in atrial fibrillation; assay type: in vivo, human
Procedure: A double blind, placebo-controlled study was designed to establish the i.v. dose range of DTI-0009 that safely reduces heart rates in patients with atrial fibrillation. […] The patients' heart rates and blood pressures were measured periodically throughout the treatment period and for 75 and 80 minutes post-infusion, respectively. Safety assessments were made throughout the study and for up to three to seven days post-dose.

AV nodal conduction = assay: Slowing of AV nodal conduction versus heart rate reduction; assay type: in vivo; settings: guinea pig
Source text: Therefore, DTI-0009 may be capable of terminating episodes of supraventricular arrythymias at doses that have little effect on normal heart rate or blood pressure.

**Q.** How did the DBP ([1]; 2 μg/kg (11 patients), 30 minutes after start of infusion (BP 35 minutes, footnote c), Baseline 82.2) turn out when CCNC(=O)[C@H]1O[C@@H](n2cnc3c(NC4CCCC4)ncnc32)[C@H](O)[C@@H]1O [DTI-0009, N^6-cyclopentyl-5′-(N-ethyl)carboxamidoadenosine] was run?
**A.** 77.8^e mmHg

**Q.** What about the SBP ([1]; 2 μg/kg (11 patients), 30 minutes after start of infusion (BP 35 minutes, footnote c), Baseline 130.7) of the same compound?
**A.** 129.5^e mmHg

**Q.** And the DBP ([1]; 2 μg/kg (n = 12), 5 minutes after start of infusion, Baseline 82.2)?
**A.** 87.7 mmHg

**Q.** What about the HR ([1]; 2 μg/kg (n = 12), 5 minutes after start of infusion, Baseline 129.9) of the same compound?
**A.** 117.1^a bpm

**Q.** What about the SBP ([1]; 2 μg/kg (n = 12), 5 minutes after start of infusion, Baseline 130.7) of the same compound?
**A.** 136.6 mmHg

**Q.** What about the DBP ([1]; 2 μg/kg (n = 12), 15 minutes after start of infusion, Baseline 82.2) of the same compound?
**A.** 84.6 mmHg

**Q.** What about the HR ([1]; 2 μg/kg (n = 12), 15 minutes after start of infusion, Baseline 129.9) of the same compound?
**A.** 102.4^b bpm

**Q.** And the SBP ([1]; 2 μg/kg (n = 12), 15 minutes after start of infusion, Baseline 130.7)?
**A.** 134.4 mmHg

**Q.** And the HR ([1]; 2 μg/kg (n = 12), 30 minutes after start of infusion, Baseline 129.9)?
**A.** 112.1^a bpm

**Q.** And the HR ([1]; 4 μg/kg (8 patients), 30 minutes after start of infusion, Baseline 143.9)?
**A.** 115.1^a,d bpm

**Q.** What about the DBP ([1]; 4 μg/kg (n = 9), 5 minutes after start of infusion, Baseline 75.0) of the same compound?
**A.** 76.3 mmHg

**Q.** What about the SBP ([1]; 4 μg/kg (n = 9), 5 minutes after start of infusion, Baseline 132.1) of the same compound?
**A.** 127.4 mmHg

**Q.** And the HR ([1]; 4 μg/kg (n = 9), 5 minutes after start of infusion, Baseline 143.9)?
**A.** 114.9^a bpm

**Q.** And the DBP ([1]; 4 μg/kg (n = 9), 15 minutes after start of infusion, Baseline 75.0)?
**A.** 68.7 mmHg

**Q.** And the SBP ([1]; 4 μg/kg (n = 9), 15 minutes after start of infusion, Baseline 132.1)?
**A.** 132.8 mmHg

**Q.** And the HR ([1]; 4 μg/kg (n = 9), 15 minutes after start of infusion, Baseline 143.9)?
**A.** 100.1^b bpm

**Q.** And the DBP ([1]; 4 μg/kg (n = 9), 30 minutes after start of infusion (BP 35 minutes, footnote c), Baseline 75.0)?
**A.** 72.2 mmHg

**Q.** What about the SBP ([1]; 4 μg/kg (n = 9), 30 minutes after start of infusion (BP 35 minutes, footnote c), Baseline 132.1) of the same compound?
**A.** 122.0 mmHg

**Q.** And the DBP ([1]; 6 μg/kg (n = 9), 5 minutes after start of infusion, Baseline 69.4)?
**A.** 72.9 mmHg

**Q.** And the SBP ([1]; 6 μg/kg (n = 9), 5 minutes after start of infusion, Baseline 122.1)?
**A.** 126.8 mmHg

**Q.** And the HR ([1]; 6 μg/kg (n = 9), 5 minutes after start of infusion, Baseline 140.2)?
**A.** 117.1^a bpm

**Q.** And the DBP ([1]; 6 μg/kg (n = 9), 15 minutes after start of infusion, Baseline 69.4)?
**A.** 70.4 mmHg

**Q.** And the SBP ([1]; 6 μg/kg (n = 9), 15 minutes after start of infusion, Baseline 122.1)?
**A.** 126.8 mmHg

**Q.** What about the HR ([1]; 6 μg/kg (n = 9), 15 minutes after start of infusion, Baseline 140.2) of the same compound?
**A.** 100.4^b bpm

**Q.** And the DBP ([1]; 6 μg/kg (n = 9), 30 minutes after start of infusion (BP 35 minutes, footnote c), Baseline 69.4)?
**A.** 68.7 mmHg

**Q.** What about the SBP ([1]; 6 μg/kg (n = 9), 30 minutes after start of infusion (BP 35 minutes, footnote c), Baseline 122.1) of the same compound?
**A.** 115.4 mmHg

**Q.** And the HR ([1]; 6 μg/kg (n = 9), 30 minutes after start of infusion, Baseline 140.2)?
**A.** 114.4^a bpm

**Q.** And the DBP ([1]; 8 μg/kg (n = 7), 5 minutes after start of infusion, Baseline 82.3)?
**A.** 85.1 mmHg

**Q.** What about the SBP ([1]; 8 μg/kg (n = 7), 5 minutes after start of infusion, Baseline 131.6) of the same compound?
**A.** 141.4 mmHg

**Q.** What about the HR ([1]; 8 μg/kg (n = 7), 5 minutes after start of infusion, Baseline 133.7) of the same compound?
**A.** 101.4^a bpm

**Q.** What about the DBP ([1]; 8 μg/kg (n = 7), 15 minutes after start of infusion, Baseline 82.3) of the same compound?
**A.** 80.3 mmHg

**Q.** What about the SBP ([1]; 8 μg/kg (n = 7), 15 minutes after start of infusion, Baseline 131.6) of the same compound?
**A.** 145.3 mmHg

**Q.** What about the HR ([1]; 8 μg/kg (n = 7), 15 minutes after start of infusion, Baseline 133.7) of the same compound?
**A.** 90.9^a bpm

**Q.** And the DBP ([1]; 8 μg/kg (n = 7), 30 minutes after start of infusion (BP 35 minutes, footnote c), Baseline 82.3)?
**A.** 77.4 mmHg

**Q.** What about the SBP ([1]; 8 μg/kg (n = 7), 30 minutes after start of infusion (BP 35 minutes, footnote c), Baseline 131.6) of the same compound?
**A.** 134.4 mmHg

**Q.** What about the HR ([1]; 8 μg/kg (n = 7), 30 minutes after start of infusion, Baseline 133.7) of the same compound?
**A.** 96.3^a bpm

**Q.** What about the DBP ([1]; 10 μg/kg (n = 8), 5 minutes after start of infusion, Baseline 75.9) of the same compound?
**A.** 83.1 mmHg

**Q.** What about the SBP ([1]; 10 μg/kg (n = 8), 5 minutes after start of infusion, Baseline 128.3) of the same compound?
**A.** 140.6 mmHg

**Q.** And the HR ([1]; 10 μg/kg (n = 8), 5 minutes after start of infusion, Baseline 142.5)?
**A.** 110.0^b bpm

**Q.** What about the DBP ([1]; 10 μg/kg (n = 8), 15 minutes after start of infusion, Baseline 75.9) of the same compound?
**A.** 73.0 mmHg

**Q.** What about the SBP ([1]; 10 μg/kg (n = 8), 15 minutes after start of infusion, Baseline 128.3) of the same compound?
**A.** 125.8 mmHg

**Q.** And the HR ([1]; 10 μg/kg (n = 8), 15 minutes after start of infusion, Baseline 142.5)?
**A.** 95.4^a bpm

**Q.** What about the DBP ([1]; 10 μg/kg (n = 8), 30 minutes after start of infusion (BP 35 minutes, footnote c), Baseline 75.9) of the same compound?
**A.** 71.3 mmHg

**Q.** What about the SBP ([1]; 10 μg/kg (n = 8), 30 minutes after start of infusion (BP 35 minutes, footnote c), Baseline 128.3) of the same compound?
**A.** 126.1 mmHg

**Q.** What about the HR ([1]; 10 μg/kg (n = 8), 30 minutes after start of infusion, Baseline 142.5) of the same compound?
**A.** 104.6^a bpm

**Q.** And the DBP ([1]; 12 μg/kg (n = 4), 5 minutes after start of infusion, Baseline 80.5)?
**A.** 82.5 mmHg

**Q.** And the SBP ([1]; 12 μg/kg (n = 4), 5 minutes after start of infusion, Baseline 119.5)?
**A.** 131.5 mmHg

**Q.** What about the HR ([1]; 12 μg/kg (n = 4), 5 minutes after start of infusion, Baseline 120.0) of the same compound?
**A.** 82.0^a bpm

**Q.** What about the DBP ([1]; 12 μg/kg (n = 4), 15 minutes after start of infusion, Baseline 80.5) of the same compound?
**A.** 78.5 mmHg

**Q.** And the SBP ([1]; 12 μg/kg (n = 4), 15 minutes after start of infusion, Baseline 119.5)?
**A.** 122.5 mmHg

**Q.** And the HR ([1]; 12 μg/kg (n = 4), 15 minutes after start of infusion, Baseline 120.0)?
**A.** 74.5^a bpm

**Q.** And the DBP ([1]; 12 μg/kg (n = 4), 30 minutes after start of infusion (BP 35 minutes, footnote c), Baseline 80.5)?
**A.** 68.5^a mmHg

**Q.** What about the SBP ([1]; 12 μg/kg (n = 4), 30 minutes after start of infusion (BP 35 minutes, footnote c), Baseline 119.5) of the same compound?
**A.** 118.5 mmHg

**Q.** What about the HR ([1]; 12 μg/kg (n = 4), 30 minutes after start of infusion, Baseline 120.0) of the same compound?
**A.** 88.0^a bpm

**Q.** And the “changes in systolic or diastolic blood pressures” value ([1]; any treatment group, infusion period and up to 80 minutes post-infusion)?
**A.** no clinically significant changes

**Q.** And the “potency at slowing AV nodal conduction versus reducing heart rate” value (AV nodal conduction; in vivo)?
**A.** three times more potent at slowing AV nodal conduction than at reducing heart rate

**Q.** What about the “rate dependence of slowing AV nodal conduction” value (AV nodal conduction; rapid atrial pacing vs normal sinus rhythm) of the same compound?
**A.** more potent at slowing AV nodal conduction during periods of rapid atrial pacing than during normal sinus rhythm
